Measured values reported in US7138242B2, “Olfactory receptor expression libraries and methods of making and using them” (Johns Hopkins University, priority 1998, dated 2006).

Legend:
[1] = system: full-length I-C6 receptor fused to translocation domain (rhodopsin tag); experiment: Ca2+ imaging, full-length I-C6 receptor with rhodopsin tag in HEK-293 cells; format: cell-based, mouse
Experimental: PCR products were digested with PstI and BspEI restriction enzymes before size fractionation, purification and ligation into the pCMV-Rho/M4NC vector (see FIG. 1A). The vector ligation products were transformed into E. coli and 480 clones were placed in 96-well plates. […] Pools of cells from a single column of the plates (8 wells) were grown in a 50 ml culture and plasmid DNA prepared. Insert-containing vectors containing: the 5′-untranslated region of the rhodopsin gene, which included its coding region for the initiation methionine and the next 19 residues; joined to a full-length cDNA for a mouse olfactory receptor (M4 or I-C6), under the control of the CMV promoter, were also prepared. The full-length coding region of olfactory receptors mI7 and I-C6 were obtained by screening a mouse (129 SV/J) genomic phage (λFIX-II) library (2×10^6 independent clones) using ^32P-labeled DNA fragments (of TMII through VII sequence) of the respective receptors under stringent conditions (hybridized at 0.2×SSC at 65° C.). DNA fragments encoding the full-length receptors were cloned into pBluescript (Stratagene) and sequenced.
(§1) These transfected cells were then tested for their ability to functionally respond to ligand-receptor binding. The ligand, the adrenergic agonist isoproterenol, was “bath” applied to the transfected cells and single cell Ca^2+-imaging was performed. Cells were pre-loaded with the Ca^2+-sensitive fluorescent dye FURA-2 AM (Molecular Probes) by bathing in serum-free DMEM containing 4 μM of the membrane permeant chemical for 1 hr at 37° C., then washed with a standard bath solution (130 mM NaCl, 2 mM CaCl2, 5 mM KCl, 10 mM glucose, 10 mM Na.HEPES/pH 7.4 at room temperature). For each experiment, a glass coverslip with FURA-2 loaded HEK 293 cells was introduced into an open-topped, longitudinal microperfusion chamber (300 μl bath volume mounted on a Zeiss Axiovert 135 microscope equipped with an F Fluar 40×/1.30 oil-immersion lens. The cells were superfused with test solutions typically for 30 to 40 seconds (5 ml/application) and washed out with 5 ml of bath solution at the end of each application. Each test solution was freshly diluted and manually applied with a micropipette into the chamber. Because of this manual procedure, there could be several seconds of delay in actual application from electronic tick marks used to define the beginning of application in each graph. At the same time, the solution flow might not be completely laminar. In most cases, the onset of Ca2+ rise in response to a specific solution occurred within 15 seconds of the beginning of solution application, though longer delays were sometimes observed. Acetylcholine was applied at the end of each experiment at 10 μM for 15–20 seconds. Ratiometric Ca^2+ measurements were performed as described by Grynkiewicz (1985) 260:3440–3450, with modifications using the Zeiss/Attofluor-Ratiovision imaging system. At 5-second intervals, the cells were sequentially illuminated for less than 100 ms, first at 340 nm and then at 380 nm. Fluorescence emission at 510 nm was monitored for each excitation wavelength via an intensified CCD camera. Averaged pixel intensities within 40 to 100 regions of interest, corresponding to 40 to 100 individual cells, were digitized and stored on a computer. Attofluor-Ratiovision software (Atto Instruments) was used to determine the Ca^2+-dependent fluorescence signal expressed as the F340/F380 ratio.
To determine if these physiologic responses were caused by ligand interaction with a full-length 7-membrane receptor, a genomic clone of the entire I-C6 receptor coding sequence was isolated and used to make a chimeric molecule incorporating the tranlocation domain of the invention (the “rhodopsin tag” sequence). The full-length I-C6 receptor retained the same stereo-selectivity as a chimeric receptor construct whose only I-C6 sequence was the transmembrane domains II through VII (i.e., the odorant/ligand binding domain). […]

[2] = system: mouse olfactory receptor TM II–VII chimeric receptor library (pools of clones); experiment: Ca2+ imaging screen of 80 library chimeric receptors (10 pools of eight constructs) against 26 odorants in HEK-293 cells with Gα15,16; format: cell-based; details: for response of a library receptor: micromolar concentrations, three receptors, respectively; for intracellular Ca2+ response of a clone pool: odorants applied sequentially
Experimental: (§2) HEK-293 cells (obtained from the ATCC) were grown in DMEM supplemented with 10% fetal bovine serum, penicillin (100 U/ml), streptomycin (100 μg/ml) and L-glutamine (2 mM) in 5% CO2. Before transfection, the cells were seeded onto poly-L-lysine-coated 10.5×35×0.17 mm glass coverslips (Bellco) placed in the 60 mm culture dishes. Calcium phosphate-mediated transfections were performed in a 60 mm dish with 3 to 4 μg of receptor construct DNA, 1 μg of pCIS Gα 15 and Gα16 expression vector (Offermanns (1995) supra). 2 μg of pBluescript carrier DNA, and 0.3 μg of pRSV-T antigen expression vector (Gorman (1990) DNA and Protein Eng. Tech. 2:3–9). After 5 to 7 hr incubation, the cells were washed once with PBS containing 0.5 mM EDTA and 10% DMSO, then with PBS before continuing growth in regular media for 40–50 hr.
as §1
The 7-transmembrane domain region TM II–VII expressing vector libraries of the invention were expressed in this cell expression system. Various odorant were screened for their ability to generate a physiologic response in the form of a calcium transient, as above. Eighty plasmid clones arrayed in microtiter plates were pooled into 10 groups of eight constructs each, and co-transfected with Gα15,16 into HEK-293 cells. […]

[3] = system: I-D3 chimeric olfactory receptor; experiment: Ca2+ imaging, individual clone I-D3 in HEK-293 cells with Gα15,16; format: cell-based, mouse
Experimental: These transfected cells were then tested for their ability to functionally respond to ligand-receptor binding. The ligand, the adrenergic agonist isoproterenol, was “bath” applied to the transfected cells and single cell Ca^2+-imaging was performed. Cells were pre-loaded with the Ca^2+-sensitive fluorescent dye FURA-2 AM (Molecular Probes) by bathing in serum-free DMEM containing 4 μM of the membrane permeant chemical for 1 hr at 37° C., then washed with a standard bath solution (130 mM NaCl, 2 mM CaCl2, 5 mM KCl, 10 mM glucose, 10 mM Na.HEPES/pH 7.4 at room temperature). […] Fluorescence emission at 510 nm was monitored for each excitation wavelength via an intensified CCD camera. […] Attofluor-Ratiovision software (Atto Instruments) was used to determine the Ca^2+-dependent fluorescence signal expressed as the F340/F380 ratio. […]

[4] = system: Rho/M4NC-β2 TM II–VII (TM II–VII region from the β2-adrenergic receptor in pCMV-Rho/M4NC); experiment: Single-cell FURA-2 Ca2+ imaging, HEK-293 cells co-transfected with Rho/M4NC-β2 TM II–VII and Gα15,16; format: cell-based, human
Experimental: HEK-293 cells (obtained from the ATCC) were grown in DMEM supplemented with 10% fetal bovine serum, penicillin (100 U/ml), streptomycin (100 μg/ml) and L-glutamine (2 mM) in 5% CO2. […] After 5 to 7 hr incubation, the cells were washed once with PBS containing 0.5 mM EDTA and 10% DMSO, then with PBS before continuing growth in regular media for 40–50 hr.
Efficient screening of expressed olfactory receptors with a large number of ligands by functional analysis requires a robust and sensitive assay system. […] In this reporter system, (olfactory) receptor activation leads to the generation of an IP3-mediated increase in intracellular Ca^2+, which can be measured at the single-cell level with high sensitivity and good temporal resolution using the dye FURA-2 and radiofluorometric imaging.
A construct with the TM II–VII region from the β2-adrenergic receptor inserted in the pCMV-Rho/M4NC vector (Rho/M4NC-β2 TM II–VII) was co-transfected with Gα15,16 into HEK-293 cells. […] Images of fluorescent cells were obtained on a Zeiss 510 confocal microscope with excitation at 488 nm.
These transfected cells were then tested for their ability to functionally respond to ligand-receptor binding. The ligand, the adrenergic agonist isoproterenol, was “bath” applied to the transfected cells and single cell Ca^2+-imaging was performed. Cells were pre-loaded with the Ca^2+-sensitive fluorescent dye FURA-2 AM (Molecular Probes) by bathing in serum-free DMEM containing 4 μM of the membrane permeant chemical for 1 hr at 37° C., then washed with a standard bath solution (130 mM NaCl, 2 mM CaCl2, 5 mM KCl, 10 mM glucose, 10 mM Na.HEPES/pH 7.4 at room temperature). […] Acetylcholine was applied at the end of each experiment at 10 μM for 15–20 seconds. […] At 5-second intervals, the cells were sequentially illuminated for less than 100 ms, first at 340 nm and then at 380 nm. Fluorescence emission at 510 nm was monitored for each excitation wavelength via an intensified CCD camera. Averaged pixel intensities within 40 to 100 regions of interest, corresponding to 40 to 100 individual cells, were digitized and stored on a computer. Attofluor-Ratiovision software (Atto Instruments) was used to determine the Ca^2+-dependent fluorescence signal expressed as the F340/F380 ratio.

[5] = system: endogenous β-adrenergic receptors; experiment: Single-cell FURA-2 Ca2+ imaging, HEK-293 cells transfected with the G protein subunits (Gα15,16) alone; format: cell-based, human; details: no receptor construct
Experimental: as §2
These transfected cells were then tested for their ability to functionally respond to ligand-receptor binding. The ligand, the adrenergic agonist isoproterenol, was “bath” applied to the transfected cells and single cell Ca^2+-imaging was performed. […] Fluorescence emission at 510 nm was monitored for each excitation wavelength via an intensified CCD camera. […] Attofluor-Ratiovision software (Atto Instruments) was used to determine the Ca^2+-dependent fluorescence signal expressed as the F340/F380 ratio. […]

[6] = system: I-G7 chimeric olfactory receptor; experiment: Ca2+ imaging, individual clone I-G7 in HEK-293 cells with Gα15,16; format: cell-based, mouse; details: 10 μM
Experimental: These transfected cells were then tested for their ability to functionally respond to ligand-receptor binding. The ligand, the adrenergic agonist isoproterenol, was “bath” applied to the transfected cells and single cell Ca^2+-imaging was performed. Cells were pre-loaded with the Ca^2+-sensitive fluorescent dye FURA-2 AM (Molecular Probes) by bathing in serum-free DMEM containing 4 μM of the membrane permeant chemical for 1 hr at 37° C., then washed with a standard bath solution (130 mM NaCl, 2 mM CaCl2, 5 mM KCl, 10 mM glucose, 10 mM Na.HEPES/pH 7.4 at room temperature). For each experiment, a glass coverslip with FURA-2 loaded HEK 293 cells was introduced into an open-topped, longitudinal microperfusion chamber (300 μl bath volume mounted on a Zeiss Axiovert 135 microscope equipped with an F Fluar 40×/1.30 oil-immersion lens. The cells were superfused with test solutions typically for 30 to 40 seconds (5 ml/application) and washed out with 5 ml of bath solution at the end of each application. Each test solution was freshly diluted and manually applied with a micropipette into the chamber. Because of this manual procedure, there could be several seconds of delay in actual application from electronic tick marks used to define the beginning of application in each graph. At the same time, the solution flow might not be completely laminar. In most cases, the onset of Ca2+ rise in response to a specific solution occurred within 15 seconds of the beginning of solution application, though longer delays were sometimes observed. Acetylcholine was applied at the end of each experiment at 10 μM for 15–20 seconds. Ratiometric Ca^2+ measurements were performed as described by Grynkiewicz (1985) 260:3440–3450, with modifications using the Zeiss/Attofluor-Ratiovision imaging system. […] Fluorescence emission at 510 nm was monitored for each excitation wavelength via an intensified CCD camera. […] Attofluor-Ratiovision software (Atto Instruments) was used to determine the Ca^2+-dependent fluorescence signal expressed as the F340/F380 ratio. […]

Compound: C=C(C)[C@H]1CC=C(C)CC1 [limonene]
- intracellular Ca2+ response ([1]; 100 μM): no responses
- response of a library receptor [2]: responded

Compound: CC(C)=CCCC(C)CCO (single isomer, unassigned; (-)) [(−) citronellol]
- intracellular Ca2+ response ([1]; 30 μM): only 30 μM (−) citronellyl bromide elicited a small response

Compound: CC(C)=CCCC(C)CC(=O)O (single isomer, unassigned; (-)) [(−) citronellic acid]
- intracellular Ca2+ response ([1]; 30 μM): only 30 μM (−) citronellyl bromide elicited a small response

Compound: C=C(C)C1CC=C(C)C(=O)C1 (single isomer, unassigned; (-)) [(−) carvone]
- intracellular Ca2+ response [3]: responsive
- intracellular Ca2+ response of a clone pool ([2]; 10 μM): transient increases in Ca^2+
- Ca2+ response of a clone pool to a second application ([2]; 10 μM, second application): second response to (−) carvone could still be elicited

Compound: C=C(C)[C@H]1CC=C(C)C(=O)C1 [(+) carvone]
- intracellular Ca2+ response [3]: responsive
- intracellular Ca2+ response of a clone pool ([2]; 10 μM): lack of response

Compound: CC(C)=CCC/C(C)=C/C=O [+/− citral]
- intracellular Ca2+ response ([1]; 30 μM): only 30 μM (−) citronellyl bromide elicited a small response

Compound: CC(C)=CCCC(C)CCBr (single isomer, unassigned; (-)) [(−) citronellyl bromide]
- qualitative rank order of potency for binding and activating the I-C6 receptor [1]: (−)citronellal>(+)citronellal, citronellyl bromide>28 other odorants
- intracellular Ca2+ response ([1]; 30 μM): small response
- intracellular Ca2+ response ([1]; control experiments lacking Gα15,16): no response

Compound: C=C(C)C1CC=C(C)C(=O)C1 (stereo not shown) [carvone]
- intracellular Ca2+ response ([1]; 100 μM): no responses
- response of a library receptor [2]: responded

Compound: CC(C)=CCCC(C)CC=O (single isomer, unassigned; (+)) [(+) citronellal]
- qualitative rank order of potency for binding and activating the I-C6 receptor [1]: (−)citronellal>(+)citronellal, citronellyl bromide>28 other odorants
- intracellular Ca2+ response ([1]; 30 μM): elicit a response
- intracellular Ca2+ response ([1]; 100 μM): elicit a response
- intracellular Ca2+ response of a clone pool ([2]; 10 μM): absence of response

Compound: CC(C)NCC(O)c1ccc(O)c(O)c1 (stereo not shown) [isoproterenol]
- intracellular Ca2+ response (FURA-2 F340/F380) ([4]; bath application, cells co-transfected with Gα15,16): transient increase in intracellular Ca^2+
- Ca2+ response to a second application ([4]; second application (desensitization)): frequently failed to elicit a response
- dependence of the Ca2+ transient on Gα15,16 ([4]; with vs without cotransfected Gα15,16): dependent on cotransfection with the Gα15,16 subunits
- intracellular Ca2+ response [5]: small response

Compound: (−) limonene
- Ca2+ response relative to the (+) isomer [6]: perhaps not as well
- intracellular Ca2+ response [6]: responded

Compound: (−) citral demethyl acetal
- intracellular Ca2+ response ([1]; 30 μM): only 30 μM (−) citronellyl bromide elicited a small response

Compound: C=C(C)C1CC=C(C)CC1 (single isomer, unassigned; (+)) [(+) limonene]
- intracellular Ca2+ response [6]: responded
- intracellular Ca2+ response of a clone pool ([2]; 10 μM): transient increases in Ca^2+
